Four molecules from article PMC5908784, “Extracellular loops 2 and 3 of the calcitonin receptor selectively modify agonist binding and efficacy” (Biochemical Pharmacology, 2018) can be followed below.

Experiment in all cases: cAMP accumulation
Common to all, as to type: cell-based
Common to all, as to conditions: mean ± S.E.M.; for Emax: cAMP maximal response, SEM; for EC50: cAMP, CV1-FlpIn cells, 30 min, IBMX
For orientation: cAMP levels reflect the balance of adenylyl cyclase and phosphodiesterase activity.

The target in one test is T1, hCTR M376A (Homo sapiens, UniProt P30988, M376A).
T1 construct: c-Myc (N); expressed in transfected cells
T1 sequence (P30988 25-474 M376A): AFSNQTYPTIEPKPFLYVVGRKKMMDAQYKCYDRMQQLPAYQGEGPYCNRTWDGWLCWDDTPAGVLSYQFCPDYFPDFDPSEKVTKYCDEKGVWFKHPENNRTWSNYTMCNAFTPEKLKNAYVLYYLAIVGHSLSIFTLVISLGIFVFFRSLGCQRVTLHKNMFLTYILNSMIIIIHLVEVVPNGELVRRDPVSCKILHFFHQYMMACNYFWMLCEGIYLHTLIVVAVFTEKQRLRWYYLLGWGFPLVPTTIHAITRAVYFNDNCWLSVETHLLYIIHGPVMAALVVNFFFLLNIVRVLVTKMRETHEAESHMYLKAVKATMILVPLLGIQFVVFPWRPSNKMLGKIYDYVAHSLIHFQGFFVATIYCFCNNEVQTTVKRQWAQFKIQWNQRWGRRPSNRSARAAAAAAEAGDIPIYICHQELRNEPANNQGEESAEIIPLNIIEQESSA
Put shortly:
(§1)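 Read-out: cAMP accumulated over 30 min of graded ligand exposure in IBMX-containing medium, expressed relative to 100 μM forskolin. Potency (EC50) and maximal effect (Emax) derive from 3-parameter logistic concentration-response curves.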

The target of another test is T2, hCTR L297A (Homo sapiens, UniProt P30988, L297A).
T2 construct: c-Myc (N); expressed in transfected cells
T2 sequence (P30988 25-474 L297A): T1 sequence (P30988 25-474 M376A) with L273A, A352M
The gist of the method: as §1

The target in the next test is T3, hCTR V358A (Homo sapiens, UniProt P30988, V358A).
T3 construct: c-Myc (N); expressed in transfected cells
T3 sequence (P30988 25-474 V358A): T1 sequence (P30988 25-474 M376A) with V334A, A352M
Put shortly: as §1

Another test deals with T4, hCTR S364A (Homo sapiens, UniProt P30988, S364A).
T4 construct: c-Myc (N); expressed in transfected cells
T4 sequence (P30988 25-474 S364A): T1 sequence (P30988 25-474 M376A) with S340A, A352M
Put shortly: as §1

The target in the next test is T5, hCTR M367A (Homo sapiens, UniProt P30988, M367A).
T5 construct: c-Myc (N); expressed in transfected cells
T5 sequence (P30988 25-474 M367A): T1 sequence (P30988 25-474 M376A) with M343A, A352M
Put shortly: as §1

Substitutions are numbered along the chain they refer to. Where a SMILES comes first, the peptide text is derived from it. Bridges are numbered along the chain shown (N, C = ends).

The term Emax denotes the size of the effect at its maximum, as opposed to the concentration needed. Consider `CC[C@H](C)[C@H](NC(=O)[C@H](C)NC(=O)[C@@H](NC(=O)[C@H](CCC(N)=O)NC(=O)[C@@H]1CCCN1C(=O)[C@H](Cc1ccccc1)NC(=O)[C@@H](NC(=O)[C@H](Cc1c[nH]cn1)NC(=O)[C@H](Cc1ccccc1)NC(=O)[C@H](CCCCN)NC(=O)[C@H](CC(N)=O)NC(=O)[C@H](Cc1ccccc1)NC(=O)[C@H](CC(=O)O)NC(=O)[C@H](CCC(N)=O)NC(=O)[C@@H](NC(=O)[C@H](Cc1ccc(O)cc1)NC(=O)[C@@H](NC(=O)CNC(=O)[C@H](CC(C)C)NC(=O)[C@H](CCSC)NC(=O)[C@@H]1CSSC[C@H](N)C(=O)NCC(=O)N[C@@H](CC(N)=O)C(=O)N[C@@H](CC(C)C)C(=O)N[C@@H](CO)C(=O)N[C@@H]([C@@H](C)O)C(=O)N1)[C@@H](C)O)[C@@H](C)O)[C@@H](C)O)[C@@H](C)O)C(=O)NCC(=O)N[C@H](C(=O)NCC(=O)N[C@@H](C)C(=O)N1CCC[C@H]1C(N)=O)C(C)C` [hCT], for which the Emax at hCTR M376A is 84.3 ± 10%; at hCTR L297A it was 91 ± 6%; on hCTR V358A it was 98 ± 4%; on hCTR S364A, 97 ± 9%; on hCTR M367A it was 82 ± 4%.

As a reminder, the EC50 is the concentration at which the effect is half-maximal. Read a low EC50 as higher potency in that assay. On to `CC(C)C[C@H](NC(=O)CNC(=O)[C@H](C)NC(=O)[C@H](CC(C)C)NC(=O)[C@H](CCCNC(=N)N)NC(=O)[C@H](Cc1cnc[nH]1)NC(=O)[C@@H](NC(=O)[C@@H](NC(=O)[C@@H]1CSSC[C@H](NC(=O)[C@H](C)N)C(=O)N[C@@H](CC(=O)O)C(=O)N[C@@H]([C@@H](C)O)C(=O)N[C@@H](C)C(=O)N[C@@H]([C@@H](C)O)C(=O)N1)C(C)C)[C@@H](C)O)C(=O)N[C@@H](CC(C)C)C(=O)N[C@@H](CO)C(=O)N[C@@H](CCCNC(=N)N)C(=O)N[C@@H](CO)C(=O)NCC(=O)NCC(=O)N[C@H](C(=O)N[C@H](C(=O)N[C@@H](CCCCN)C(=O)N[C@@H](CC(N)=O)C(=O)N[C@@H](CC(N)=O)C(=O)N[C@@H](Cc1ccccc1)C(=O)N[C@H](C(=O)N1CCC[C@H]1C(=O)N[C@H](C(=O)N[C@@H](CC(N)=O)C(=O)N[C@H](C(=O)NCC(=O)N[C@@H](CO)C(=O)N[C@@H](CCCCN)C(=O)N[C@@H](C)C(=O)N[C@@H](Cc1ccccc1)C(N)=O)C(C)C)[C@@H](C)O)C(C)C)C(C)C)C(C)C` [hαCGRP], for which the maximal response (Emax) on hCTR M376A turned out to be 47 ± 7%; at hCTR L297A, 88 ± 14%; on hCTR V358A, 74 ± 9%; at hCTR S364A, 83 ± 10%; on hCTR M367A, […]. The EC50 at hCTR M376A was 141 nM; on hCTR L297A it was 36.3 nM; at hCTR V358A, 20.9 nM; on hCTR S364A, 16.6 nM; on hCTR M367A it was […].

With `CSCC[C@H](NC(=O)CNC(=O)[C@H](CO)NC(=O)[C@H](Cc1ccccc1)NC(=O)[C@H](CCCNC(=N)N)NC(=O)[C@H](Cc1c[nH]cn1)NC(=O)[C@H](Cc1ccccc1)NC(=O)[C@H](CC(N)=O)NC(=O)[C@H](CC(N)=O)NC(=O)[C@H](CC(C)C)NC(=O)[C@H](CC(N)=O)NC(=O)[C@H](CCCNC(=N)N)NC(=O)[C@H](Cc1c[nH]c2ccccc12)NC(=O)[C@H](Cc1ccc(O)cc1)NC(=O)[C@H](C)NC(=O)[C@H](CO)NC(=O)[C@H](CC(C)C)NC(=O)[C@@H](NC(=O)[C@@H]1CSSC[C@H](N)C(=O)N[C@@H](CO)C(=O)N[C@@H](CC(N)=O)C(=O)N[C@@H](CC(C)C)C(=O)N[C@@H](CO)C(=O)N[C@@H]([C@@H](C)O)C(=O)N1)C(C)C)C(=O)NCC(=O)N[C@@H](Cc1ccccc1)C(=O)NCC(=O)N1CCC[C@H]1C(=O)N[C@@H](CCC(=O)O)C(=O)N[C@H](C(=O)N1CCC[C@H]1C(N)=O)[C@@H](C)O` [pCT] (H-CSNLSTCVLSAYWRNLNNFHRFSGMGFGPETP-NH2; disulfide 1-7), the Emax on hCTR M376A was 87 ± 11%; on hCTR L297A, 127 ± 8%; on hCTR V358A, 140 ± 15%; on hCTR S364A, 166 ± 16%; at hCTR M367A, 73 ± 13%. In addition, the EC50 on hCTR M376A was 0.234 nM; at hCTR L297A it was 0.1 ± 0.002 nM; at hCTR V358A it was 0.0316 nM; on hCTR S364A, 0.603 nM; on hCTR M367A, 0.0158 nM.

In the case of `CC(C)C[C@H](NC(=O)[C@H](CC(N)=O)NC(=O)[C@H](CC(N)=O)NC(=O)[C@H](CO)NC(=O)[C@H](CO)NC(=O)[C@H](CCCNC(=N)N)NC(=O)[C@@H](NC(=O)[C@H](CC(C)C)NC(=O)[C@H](Cc1ccccc1)NC(=O)[C@H](CC(N)=O)NC(=O)[C@H](C)NC(=O)[C@H](CC(C)C)NC(=O)[C@H](CCCNC(=N)N)NC(=O)[C@H](CCC(N)=O)NC(=O)[C@@H](NC(=O)[C@H](C)NC(=O)[C@@H]1CSSC[C@H](NC(=O)[C@@H](N)CCCCN)C(=O)N[C@@H](CC(N)=O)C(=O)N[C@@H]([C@@H](C)O)C(=O)N[C@@H](C)C(=O)N[C@@H]([C@@H](C)O)C(=O)N1)[C@@H](C)O)C(C)C)C(=O)NCC(=O)N1CCC[C@H]1C(=O)N[C@H](C(=O)N[C@@H](CC(C)C)C(=O)N1CCC[C@H]1C(=O)N1CCC[C@H]1C(=O)N[C@H](C(=O)N[C@@H](CC(N)=O)C(=O)N[C@H](C(=O)NCC(=O)N[C@@H](CO)C(=O)N[C@@H](CC(N)=O)C(=O)N[C@H](C(=O)N[C@@H](Cc1ccc(O)cc1)C(N)=O)[C@@H](C)O)C(C)C)[C@@H](C)O)C(C)C` [rAmy], the Emax on hCTR M376A worked out at 85 ± 13%; on hCTR L297A, 85 ± 10%; at hCTR V358A, 94 ± 13%; on hCTR S364A, 56 ± 7%; at hCTR M367A, 93 ± 8%.
